As usually defined, the IC50 is the midpoint of a concentration-inhibition curve. Low values mean greater potency, high ones weaker potency.

The values that follow come from patent US6495588B2, “Scytonemin and methods of using thereof” (The Regents of the University of California, priority 2000, dated 2002).

For assay [1], the system named is CAP-induced mouse ear edema. The assay can be described thus: Capsaicin (CAP)-induced mouse ear edema assay. It is filed as in vivo. How it is done: Various dilutions of test compounds were topically applied in acetone to the inside and outside surfaces of the left ears of mice in a solution comprising 0.1 μg RTX or 250 μg CAP per ear. A control, acetone, was applied to all right ears. After a 30 minute incubation, the mice were sacrificed, the ears removed, and bores taken and weighed.
For systemic studies, the test compounds were administered by intraperitoneal injection in a vehicle comprising 20% propylene glycol, 80% saline and 3 drops TWEEN-20 30 minutes or 1 hour prior to topical application of RTX or CAP. Control animals were injected with vehicle only. 0.1 μg RTX or 250 μg CAP was applied to the left ears and acetone was applied to the right ears. After 30 minutes of incubation, the mice were scarified, ears removed and bores taken and weighed.
Edema was measured by subtracting the weight of the right ear (control) from the weight of the left ear. The results were recorded as % decrease (inhibition) or % increase (potentiation) in edema relative to the control group edema.

Assay [2] addresses T1, GST-CHK1 (Homo sapiens, UniProt O14757).
T1 construct: made in house
T1 sequence (O14757 1-476): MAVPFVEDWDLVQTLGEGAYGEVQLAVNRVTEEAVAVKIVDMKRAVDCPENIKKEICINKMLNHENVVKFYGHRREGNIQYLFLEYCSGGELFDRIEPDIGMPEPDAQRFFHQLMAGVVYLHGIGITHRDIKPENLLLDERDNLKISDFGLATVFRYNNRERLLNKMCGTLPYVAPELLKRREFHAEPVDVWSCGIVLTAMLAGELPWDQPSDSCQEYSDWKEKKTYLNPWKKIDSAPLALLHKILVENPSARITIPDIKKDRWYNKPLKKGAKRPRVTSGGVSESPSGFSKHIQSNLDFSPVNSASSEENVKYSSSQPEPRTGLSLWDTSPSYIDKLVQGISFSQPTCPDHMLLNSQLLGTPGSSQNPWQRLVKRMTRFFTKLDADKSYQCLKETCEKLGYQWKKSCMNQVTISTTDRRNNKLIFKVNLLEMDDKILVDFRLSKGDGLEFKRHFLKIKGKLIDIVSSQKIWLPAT
Nature of the assay: GST-Chk1 activity assay. It is filed as biochemical. The following applies: 10 μM cold ATP, GST-cdc25C substrate. How it is done:
To determine the effect of SCY on GST-Chk1 activity, the following assay was conducted. GST-Chk1 were expressed and purified using a method previously described in Jackson et al. (2000) Can. Res. 60:566-572, which is herein incorporated by reference. GST-Chk1 was purified to […] purity as determined via SDS-PAGE analysis. The remaining 30% was attributed to free GST. Flashplates were coated with 1 μg GST-cdc25C and 100 μM ATP at 4° C. The plates were washed twice with PBS, then 0.5 μCi [^33P]-γATP, 10 μM cold ATP, and 2 μg GST-CHK1, were added to the wells in kinase reaction buffer comprising 20 mM HEPES (pH 7.4), 50 mM KCl, 10 mM MgCl2, 1 mM EGTA, and 0.5 mM DTT. Activity was measured in the presence of scytonemin (SCY) in 100% DMSO yielding a 4% DMSO final concentration. Reactions were initiated by the addition of the enzyme, incubated at 37° C. for 30 minutes, and stopped by washing the plates five times with PBS. The amount of [^33P]-γATP incorporation was measured on a Packard Top-count.

Assay [3] deals with T2, GST-Tie2 (Homo sapiens, UniProt Q02763).
T2 construct: Each reaction comprised 5 μg GST-Tie2 (intracellular kinase domain); made in house; host or cells: baculovirus (pAcG1 vector)
The assay can be described thus: GST-Tie kinase activity assay. In kind it is biochemical. The protocol: To determine the effect of SCY on GST-Tie kinase activity, the following assay was conducted. Clones for the Tie2 receptor were obtained and submitted for confirmatory sequence analysis. Similar to the method described by Huang et al. (1995) Oncogene 11:2097-2103, which is herein incorporated by reference, GST fusion constructs using the human Tie kinase domains and the commercially available pAcG1 vector (Pharmigen, San Diego, Calif.) were constructed. […] The desired restriction fragment was recovered from a partial Tie2 cDNA clone and then subcloned directly into the EcoRI site of the commercially pAcG1 expression vector. These final constructs were transfected into the baculovirus and GST-Tie2 kinase was semipurified using a glutathione affinity column to greater than about 90% purity, as determined via SDS-PAGE analysis and Coomassie Blue staining.
The kinase assay is carried out in 96 well flashplates and in the same kinase buffer used in the PLK1 kinase assays. Each reaction comprised 5 μg GST-Tie2 (intracellular kinase domain), 1 μCi [^33P]-γATP, 30 μM cold ATP in 60 μl. Compounds were in DMSO to give a final concentration of 1% DMSO. The reaction was incubated for 2 hours at 30° C. and terminated by washing the plate five times with 10 μM cold ATP. Reactions were quantitated by using a Packard Top-Count.

Assay [4] deals with PMA-induced mouse ear edema. The assay can be described thus: PMA-induced mouse ear edema assay. It is filed as in vivo. The settings on record: topical application. How it is done: The efficacy of a scytoneman compound as an anti-inflammatory agent may be established by the following assay. The scytoneman compound is topically applied in acetone to the inside pinnae of the ears of mice in a solution comprising an irritant such as the edema-causing irritant, Phorbol 12-myristate 13-acetate (PMA). Specifically, 2 μg/ear of PMA alone or in combination with 50 μg/ear of the test compound, scytonemin, was applied to the left ears (5 mice per treatment group) and acetone was applied to all right ears. After 3 hours, 20 minutes incubation, the mice were sacrificed, the ears removed and bores taken and weighed. Edema was measured by subtracting the weight of the right ear (acetone control) from the weight of the left ear (treated). Results were recorded as % decrease (inhibition) or % increase (potentiation) in edema relative to the PMA control group edema.

T2 sequence (Q02763 824-1096 limits assumed): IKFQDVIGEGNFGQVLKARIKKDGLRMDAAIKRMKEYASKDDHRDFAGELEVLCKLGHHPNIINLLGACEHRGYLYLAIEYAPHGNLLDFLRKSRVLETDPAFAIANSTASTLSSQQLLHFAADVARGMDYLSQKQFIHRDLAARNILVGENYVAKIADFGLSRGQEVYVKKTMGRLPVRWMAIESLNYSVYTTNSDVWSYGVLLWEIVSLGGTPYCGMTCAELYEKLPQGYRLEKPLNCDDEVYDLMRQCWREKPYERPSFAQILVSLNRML

In the case of scytonemin, the inhibition of edema entry is reported as “no inhibition of edema” in assay [1] (systemic 10 mg/kg, 30 minutes before topical CAP) and roughly 24% in assay [1] (topical 500 μg/ear against 250 μg/ear CAP). Besides, the half-maximal inhibitory concentration (IC50) is roughly 1400 nM in assay [2] and greater than 10000 nM in assay [3]. Further, in assay [3] (30 μM cold ATP), the “concentration at which GST-Tie2 activity is significantly affected or inhibited” value was no less than 10 µM. For the same substance, the “ED50 PMA-induced mouse ear edema and tissue myeloperoxidase activity” value in assay [4] is recorded as “about 10.9±5 μg per ear”.
